Tested on: C57BL/6J mice
Experiment: Murine zymosan-induced peritonitis
Assay type: in vivo, mouse
Settings: peritoneal lavage, n = 5 mice
Experimental: Male C57BL/6J mice of 9 weeks of age were purchased from Charles River (Kent, U.K.) and were housed in a specific pathogen-free facility in individually ventilated and filtered cages under positive pressure. Peritonitis was induced in mice by ip injection of zymosan (purchased from Sigma-Aldrich; 1 mg per mouse in 0.5 mL of phosphate-buffered saline (PBS)).[73] Mice were treated with dexamethasone (1 μg/g) purchased from Sigma-Aldrich 1 h prior to zymosan injection or (R)-6 (2 and 6 ng/g) (200 μL IP) 30 min prior to zymosan injection. Peritoneal cells were collected by lavage 4 h after injection of zymosan. The local Animal Use and Care Committee and The UK Home Office approved the animal experiments in accordance with the derivatives of both The Home Office Guidance on the Operation of Animals (Scientific Procedures) Act 1986 and The Guide for the Care and Use of Laboratory Animals of the National Research Council.
Surface marker expression on peritoneal cells was assessed by flow cytometry with data collection on a FACSCalibur (Becton Dickinson). Data were analyzed with FlowJo analysis software (Treestar Inc.). Cells were stained with AlexaFluor488 conjugated anti-F4/80 (clone BM8; eBioscience); APC conjugated anti-CD11b (clone M1/70; eBioscience) and Pacific blue conjugated anti-Ly6G (clone 1A8; BioLegend) antibodies. Prior to surface staining, peritoneal cells were counted manually (Neubauer chamber) with Turks solution. Using appropriate fluorescence minus one (FMO) controls, quadrants were drawn, and data were plotted on logarithmic-scale density- or dot-plots.

In the case of CCCCC[C@@H](O)c1nc2ccccc2nc1/C=C/[C@@H](O)[C@@H](O)CCCC(=O)OC [(R)-6, Methyl (5S,6R,E)-5,6-Dihydroxy-8-(3-((R)-1-hydroxyhexyl)quinoxalin-2-yl)oct-7-enoate], the “Total no of PMNs” value ((R)-6 2 μg/kg ip (low dose) + zymosan 40 mg/kg) is reported as 4.4 ± 1.1 × 10^6/mL and the “Total no of PMNs” value ((R)-6 6 μg/kg ip (high dose) + zymosan 40 mg/kg) is reported as 3.2 ± 0.7 × 10^6/mL.

— PMC8279484 (Journal of Medicinal Chemistry, 2021)
